Drawing on PMC5820170 (Molecular cancer therapeutics, 2015), this text covers IC50 for 1 compound.

This test has as its target Mammalian Ste20-like kinase 4 (MST4) (Homo sapiens, UniProt Q9P289). The test is classed as biochemical.

Mammalian Ste20-like kinase 4 (MST4), sequence (Q9P289 whole entry): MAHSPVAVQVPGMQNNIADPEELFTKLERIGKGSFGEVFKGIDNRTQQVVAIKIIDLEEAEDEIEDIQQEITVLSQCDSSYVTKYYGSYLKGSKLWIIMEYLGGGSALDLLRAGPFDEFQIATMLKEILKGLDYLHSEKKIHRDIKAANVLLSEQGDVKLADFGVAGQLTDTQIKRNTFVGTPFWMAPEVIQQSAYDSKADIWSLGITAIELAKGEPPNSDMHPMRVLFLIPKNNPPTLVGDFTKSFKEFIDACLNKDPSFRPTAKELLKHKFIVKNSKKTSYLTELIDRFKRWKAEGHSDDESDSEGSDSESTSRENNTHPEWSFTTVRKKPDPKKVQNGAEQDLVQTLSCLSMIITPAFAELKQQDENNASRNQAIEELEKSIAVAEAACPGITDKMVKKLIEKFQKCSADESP

Consider `CCS(=O)(=O)Nc1ccc2c(c1)/C(=C(/Nc1ccc(CN3CCCCC3)cc1)c1ccccc1)C(=O)N2` [Hesperadin], for which the IC50 was determined as 6.18 ± 2.2 nM.

Broadly, the IC50 is the midpoint of a concentration-inhibition curve.
